Non-standard residues stand in square brackets, D forms with d. Residues, ends and D or L forms follow the SMILES beside them. *: point of attachment. X2 = [N-]=[N+]=N[C@@H](CCCCN)C(=O)*; Pra = C#CC[C@H](N)C(=O)O
Target: Vascular endothelial growth factor receptor 1 (Homo sapiens, UniProt P17948)
Assay: Displacement of biotinylated VEGF165 from human recombinant VEGFR1

Vascular endothelial growth factor receptor 1, sequence (P17948 whole entry): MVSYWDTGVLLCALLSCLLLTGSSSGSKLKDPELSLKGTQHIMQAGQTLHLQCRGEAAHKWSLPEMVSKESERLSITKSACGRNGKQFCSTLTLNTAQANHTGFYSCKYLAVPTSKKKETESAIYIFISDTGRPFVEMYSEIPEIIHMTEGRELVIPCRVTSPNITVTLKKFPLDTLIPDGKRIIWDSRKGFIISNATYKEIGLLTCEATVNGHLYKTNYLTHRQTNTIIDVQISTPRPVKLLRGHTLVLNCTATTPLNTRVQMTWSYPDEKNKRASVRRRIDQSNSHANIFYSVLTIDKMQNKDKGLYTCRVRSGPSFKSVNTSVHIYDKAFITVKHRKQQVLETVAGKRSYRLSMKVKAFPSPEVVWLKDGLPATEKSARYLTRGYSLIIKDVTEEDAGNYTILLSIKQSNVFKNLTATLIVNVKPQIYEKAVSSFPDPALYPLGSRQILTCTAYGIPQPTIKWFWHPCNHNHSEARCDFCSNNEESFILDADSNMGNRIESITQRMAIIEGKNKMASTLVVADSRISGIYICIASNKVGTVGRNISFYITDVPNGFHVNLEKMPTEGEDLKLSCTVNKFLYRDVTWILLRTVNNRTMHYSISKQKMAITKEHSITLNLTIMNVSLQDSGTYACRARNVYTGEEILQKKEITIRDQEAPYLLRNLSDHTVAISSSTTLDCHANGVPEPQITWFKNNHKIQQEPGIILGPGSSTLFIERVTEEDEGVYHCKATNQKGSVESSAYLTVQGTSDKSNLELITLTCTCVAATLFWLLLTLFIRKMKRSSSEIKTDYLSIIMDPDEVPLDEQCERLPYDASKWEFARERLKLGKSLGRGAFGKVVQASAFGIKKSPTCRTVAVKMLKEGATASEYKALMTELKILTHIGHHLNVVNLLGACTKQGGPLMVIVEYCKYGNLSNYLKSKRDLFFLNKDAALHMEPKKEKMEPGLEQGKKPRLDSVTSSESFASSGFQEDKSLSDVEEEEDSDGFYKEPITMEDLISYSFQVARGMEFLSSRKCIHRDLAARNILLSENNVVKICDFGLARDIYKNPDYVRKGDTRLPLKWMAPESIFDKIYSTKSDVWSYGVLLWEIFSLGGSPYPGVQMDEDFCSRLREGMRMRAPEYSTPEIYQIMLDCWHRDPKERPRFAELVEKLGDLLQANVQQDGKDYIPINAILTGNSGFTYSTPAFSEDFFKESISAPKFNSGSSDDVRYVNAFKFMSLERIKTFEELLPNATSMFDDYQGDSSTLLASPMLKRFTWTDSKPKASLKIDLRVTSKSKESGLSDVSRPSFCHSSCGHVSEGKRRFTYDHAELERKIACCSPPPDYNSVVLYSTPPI

Row | IC50 | Compound
1 | 151 µM | C#CC[C@H](NC(=O)[C@H](CCC(=O)O)NC(=O)[C@H](CC(C)C)NC(=O)[C@@H]1CCCN1C(=O)[C@H](CCC(=O)O)NC(=O)[C@H](CC(=O)O)NC(=O)[C@H](Cc1ccc(O)cc1)NC(=O)[C@H](CCCCN)N=[N+]=[N-])C(N)=O (X2-YDEPLE[Pra]-NH2)
2 | 121 µM | CSCC[C@@H]1NC(=O)[C@H](CCC(N)=O)NC(=O)[C@H](Cc2cnc[nH]2)NC(=O)Cn2cc(nn2)C[C@@H](C(N)=O)NC(=O)[C@H](Cc2ccc(O)cc2)NC(=O)[C@H](Cc2ccc(O)cc2)NC(=O)[C@H](Cc2ccccc2)NC1=O

Reference: ChEMBL document CHEMBL1140450, “On-resin cyclization of peptide ligands of the Vascular Endothelial Growth Factor Receptor 1 by copper(I)-catalyzed 1,3-dipolar azide-alkyne cycloaddition” (Bioorg Med Chem Lett, 2007)
